Test results reported in BigSolDB 2.1.

Cc1occc(=O)c1O
solubility (mole fraction)
Conditions	288.15 K	293.15 K	298.15 K	303.15 K	308.15 K	313.15 K	318.15 K	323.15 K
in 1,2-dichloroethane	0.0109	0.0143	0.0174	0.0214	0.0262	0.0333	0.0378	0.048
in acetone	0.0101	0.0116	0.0134	0.0157	0.0195	0.023	0.0265	0.0311
in acetonitrile	0.00735	0.00861	0.0107	0.0136	0.016	0.0209	0.0258	0.0325
in ethanol	0.00894	0.0106	0.0125	0.0156	0.0211	0.0273	0.0331	0.0427
in ethyl acetate	0.0115	0.013	0.0153	0.02	0.0225	0.0276	0.0337	0.0413
in isobutanol	0.00638	0.00832	0.0108	0.0134	0.0185	0.0238	0.0293	0.0349
in isopropanol	0.00683	0.00812	0.0103	0.0129	0.0161	0.021	0.0265	0.0328
in methanol	0.0135	0.0159	0.0185	0.0223	0.0267	0.0325	0.0373	0.0465
in n-butanol	0.00705	0.00917	0.0115	0.0143	0.0182	0.0228	0.03	0.0365
in n-butyl acetate	0.00889	0.0101	0.0128	0.0148	0.0193	0.0229	0.0281	0.0317
in n-propanol	0.00705	0.00931	0.0118	0.0144	0.0182	0.0233	0.028	0.0341
in n-propyl acetate	0.00974	0.0105	0.013	0.0151	0.0181	0.0226	0.026	0.0316
in sec-butanol	0.00716	0.00927	0.0111	0.0153	0.0177	0.0244	0.0304	0.0408
